Assay results from ChEMBL document CHEMBL1143916, “Inhibition of 3(17)alpha-hydroxysteroid dehydrogenase (AKR1C21) by aldose reductase inhibitors” (Bioorg Med Chem, 2008).

Columns and labels:
[1] = target: T1, Aldo-keto reductase family 1 member C21 (Mus musculus, UniProt Q91WR5); test: Inhibition of mouse recombinant AKR1C21
T1 sequence (Q91WR5 whole entry): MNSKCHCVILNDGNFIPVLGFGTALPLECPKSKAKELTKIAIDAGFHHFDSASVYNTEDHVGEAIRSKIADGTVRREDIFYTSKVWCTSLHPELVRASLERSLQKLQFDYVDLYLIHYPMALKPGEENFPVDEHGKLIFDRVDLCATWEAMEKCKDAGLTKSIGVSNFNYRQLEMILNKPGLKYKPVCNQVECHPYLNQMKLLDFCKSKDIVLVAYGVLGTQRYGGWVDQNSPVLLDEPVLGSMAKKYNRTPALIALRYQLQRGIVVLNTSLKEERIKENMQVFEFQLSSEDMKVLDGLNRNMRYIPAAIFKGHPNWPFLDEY

[2] = target: T2, Aldo-keto reductase family 1 member C21 (Mus musculus) (UniProt Q91WR5); test: Inhibition of mouse recombinant AKR1C21 at 12 uM
T2 sequence (whole entry): T1 sequence (Q91WR5 whole entry)

[3] = target: Aldo-keto reductase family 1 member B1 (Homo sapiens, UniProt P15121); test: Inhibition of human recombinant aldose reductase

Row | Structure (SMILES) | Ki [1] [µM] | inhibition [2] [%] | IC50 [1] [µM] | IC50 [3] [µM]
1 | O=c1c(O)c(-c2cc(O)c(O)c(O)c2)oc2cc(O)cc(O)c12 [MYRICETIN] | – | – | 12.3 | 29
2 | O=c1c(O)c(-c2ccc(O)c(O)c2)oc2cc(O)cc(O)c12 [QUERCETIN] | 11 | – | 6.9 | –
3 | C[C@@H]1O[C@@H](Oc2c(-c3ccc(O)c(O)c3)oc3cc(O)cc(O)c3c2=O)[C@H](O)[C@H](O)[C@H]1O [QUERCITRIN] | – | – | 33.3 | –
4 | O=C(O)Cc1nn(Cc2nc3cc(C(F)(F)F)ccc3s2)c(=O)c2ccccc12 [ZOPOLRESTAT] | – | – | 158 | –

Further lines, with some results ahead:

Row | Ki [1] [µM] | inhibition [2] [%] | Structure (SMILES) | IC50 [1] [µM] | IC50 [3] [µM]
5 | 10.4 | – | O=C1CC2(C(=O)N1)C(=O)N(Cc1ccc(Br)cc1F)C(=O)c1ccc(F)cc12 (configuration not stated) | 27.5 | –
6 | – | 36 | O=c1cc(-c2ccccc2)oc2cc(O)cc(O)c12 [CHRYSIN] | – | 8.5
7 | 22 | – | COc1ccc2c(C(=S)N(C)CC(=O)O)cccc2c1C(F)(F)F [TOLRESTAT] | 48 | –
